PubChem BioAssay (NCI)
Values joined by “and” are separate entries in the source; they are usually repeats but may differ in a detail not shown here. Equal entries are not always repeated.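 Grown in 96-well plates, cells were treated for 48 hours with each compound at five concentrations. Insufficient inhibition: endpoint recorded as highest concentration tested. At the GI50, growth is halved. TGI marks complete inhibition of growth.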

How the values were obtained:
Assay in all cases: NCI anticancer screen, dose series, 48 h
SW-620 colon = test system: SW-620 colon
SR leukemia = test system: SR leukemia
SN12C renal = test system: SN12C renal
ACHN renal = test system: ACHN renal
NCI-H522 lung = test system: NCI-H522 lung
PC-3 prostate = test system: PC-3 prostate
SK-OV-3 ovarian = test system: SK-OV-3 ovarian
OVCAR-5 ovarian = test system: OVCAR-5 ovarian
OVCAR-3 ovarian = test system: OVCAR-3 ovarian
HOP-62 NSCLC = test system: HOP-62 NSCLC

`O=C(NCC1CCCO1)c1ccc(NC2=C(Cl)C(=O)N(Cc3ccccc3)C2=O)cc1` (centres undefined) gave a GI50 (SW-620 colon) of 5.95 µM, a TGI (SW-620 colon) of 42.8 µM and a GI50 (SR leukemia) of 12400 nM. The TGI (SR leukemia) was 30.9 µM, the GI50 (SN12C renal) was 0.0654 µM and the TGI (SN12C renal) was 7.32 µM. For the same molecule, the GI50 (ACHN renal) was 18700 nM, the TGI (ACHN renal) was 38.8 µM and the GI50 (NCI-H522 lung) was 1.92 µM. The TGI (NCI-H522 lung) was 10.8 µM, the GI50 (PC-3 prostate) was 11400 nM and the TGI (PC-3 prostate) was 25 µM. It also gave a GI50 (SK-OV-3 ovarian) of 18.6 µM, a TGI (SK-OV-3 ovarian) of 36.6 µM and a GI50 (OVCAR-5 ovarian) of 16.6 µM. For the same molecule, the TGI (OVCAR-5 ovarian) was 32.8 µM, the GI50 (OVCAR-3 ovarian) was 3.18 µM and the TGI (OVCAR-3 ovarian) was 10.7 µM.

`O=[N+]([O-])c1cc([N+](=O)[O-])c(Nn2c3ccccc3c3ccccc32)c([N+](=O)[O-])c1` was tested, and the GI50 (SW-620 colon) was 0.366 µM, the TGI (SW-620 colon) was 23.7 µM and 3.56 µM and the GI50 (SR leukemia) was 232 nM. For the same molecule, the TGI (SR leukemia) was > 100 µM, the GI50 (SN12C renal) was 0.322 µM and the TGI (SN12C renal) was 9.42 µM and 6.72 µM. For the same molecule, the TGI (ACHN renal) was 8.49 µM, the GI50 (NCI-H522 lung) was 0.253 µM and the TGI (NCI-H522 lung) was 1.88 µM and 0.838 µM. The GI50 (PC-3 prostate) was 316 nM, the TGI (PC-3 prostate) was 7.37 µM and 11.3 µM and the GI50 (OVCAR-5 ovarian) was 0.338 µM. For the same molecule, the TGI (OVCAR-5 ovarian) was 26.7 µM and 13.5 µM, the GI50 (HOP-62 NSCLC) was 344 nM and the TGI (HOP-62 NSCLC) was 6.11 µM and 2.07 µM. The GI50 (OVCAR-3 ovarian) was 0.352 µM and the TGI (OVCAR-3 ovarian) was > 33.5 µM.

In the case of `CC(C)CCCCCCCCCCCCC(=O)NCC(=O)NC1C(O)C(O)C(Nc2ncnc3nc[nH]c23)OC1C(O)CO` (centres undefined), the GI50 (SW-620 colon) is reported as 0.000756 µM and 0.005 µM, the GI50 (SR leukemia) is reported as < 0.01 nM and the GI50 (SN12C renal) is reported as 0.00574 µM and 0.005 µM. For the same molecule, the TGI (SN12C renal) was 0.0729 µM and 0.0145 µM, the GI50 (ACHN renal) was < 0.01 nM and the GI50 (PC-3 prostate) was < 0.01 nM. The GI50 (SK-OV-3 ovarian) was 0.005 µM, the TGI (SK-OV-3 ovarian) was 0.00344 µM and 0.0224 µM and the GI50 (OVCAR-5 ovarian) was 0.005 µM. The TGI (OVCAR-5 ovarian) was 0.0171 µM and 0.0695 µM, the GI50 (HOP-62 NSCLC) was < 0.01 nM and the TGI (OVCAR-3 ovarian) was 0.00189 µM and 0.00279 µM and 0.00509 µM.

`COc1ccc(/C=C2/SC(Nc3nc(-c4nc(NC5=NC(=O)/C(=C\c6ccc(OC)cc6)S5)sc4C)c(C)s3)=NC2=O)cc1` was tested, and the GI50 (SW-620 colon) was 1.31 µM, the TGI (SW-620 colon) was > 50 µM and the GI50 (SR leukemia) was 140 nM. The TGI (SR leukemia) was > 50 µM, the GI50 (SN12C renal) was 1.96 µM and the TGI (SN12C renal) was 9.19 µM. The GI50 (ACHN renal) was 838 nM, the TGI (ACHN renal) was 9.74 µM and the GI50 (NCI-H522 lung) was 2.14 µM. The TGI (NCI-H522 lung) was > 25.9 µM, the GI50 (PC-3 prostate) was 787 nM and the TGI (PC-3 prostate) was 9.95 µM. It also gave a GI50 (OVCAR-5 ovarian) of 5.18 µM, a TGI (OVCAR-5 ovarian) of 24.5 µM and a GI50 (HOP-62 NSCLC) of 485 nM. For the same molecule, the TGI (HOP-62 NSCLC) was 4.92 µM, the GI50 (OVCAR-3 ovarian) was 0.188 µM and the TGI (OVCAR-3 ovarian) was 3.25 µM.

With `CC1=CC(C)(C)NN1C1=NS(=O)(=O)c2ccccc2N1C` the TGI (SW-620 colon) was > 100 µM, the TGI (SN12C renal) was > 100 µM and the TGI (ACHN renal) was > 100 µM. For the same molecule, the TGI (NCI-H522 lung) was > 100 µM, the TGI (PC-3 prostate) was > 100 µM and the TGI (SK-OV-3 ovarian) was > 100 µM. For the same molecule, the TGI (OVCAR-5 ovarian) was > 100 µM, the TGI (HOP-62 NSCLC) was > 100 µM and the TGI (OVCAR-3 ovarian) was > 100 µM.

With `Cn1c2c(c3c(Cl)nncc31)Cc1ccccc1-2` the GI50 (SW-620 colon) was 17.9 µM, the TGI (SW-620 colon) was > 100 µM and the GI50 (SN12C renal) was 20.8 µM. The TGI (SN12C renal) was 81.7 µM, the GI50 (ACHN renal) was 11600 nM and the TGI (ACHN renal) was 54.3 µM. The GI50 (NCI-H522 lung) was 25.1 µM, the TGI (NCI-H522 lung) was 59.9 µM and the GI50 (PC-3 prostate) was 31800 nM. The TGI (PC-3 prostate) was > 100 µM, the GI50 (SK-OV-3 ovarian) was 28.6 µM and the TGI (SK-OV-3 ovarian) was 75.1 µM. For the same molecule, the GI50 (OVCAR-5 ovarian) was 27.4 µM, the TGI (OVCAR-5 ovarian) was > 100 µM and the GI50 (HOP-62 NSCLC) was 25200 nM. For the same molecule, the TGI (HOP-62 NSCLC) was > 100 µM, the GI50 (OVCAR-3 ovarian) was 31 µM and the TGI (OVCAR-3 ovarian) was > 100 µM.

With `O=C1C=CC(=O)c2c(O)c3c(c(O)c21)C[C@H](O)[C@H](O)[C@@H]3O` the TGI (SW-620 colon) was 2.37 µM, the TGI (SR leukemia) was > 100 µM and the TGI (SN12C renal) was 3.82 µM. The TGI (ACHN renal) was 8 µM, the TGI (PC-3 prostate) was 8.34 µM and the TGI (SK-OV-3 ovarian) was 33 µM. It also gave a TGI (OVCAR-5 ovarian) of 17.2 µM, a TGI (HOP-62 NSCLC) of 13.2 µM and a TGI (OVCAR-3 ovarian) of 3.88 µM.

With `COC(=O)c1cc2c3ccccc3n3c2c(n1)-c1[nH]c2ccccc2c(=O)c1C3` the GI50 (SW-620 colon) was > 100 µM, the TGI (SW-620 colon) was > 100 µM and the GI50 (SR leukemia) was 17300 nM. For the same molecule, the TGI (SR leukemia) was 96.9 µM, the GI50 (SN12C renal) was > 100 µM and the TGI (SN12C renal) was > 100 µM. The GI50 (ACHN renal) was 33600 nM, the TGI (ACHN renal) was > 100 µM and the GI50 (NCI-H522 lung) was 66.3 µM. The TGI (NCI-H522 lung) was > 100 µM, the GI50 (PC-3 prostate) was > 100000 nM and the TGI (PC-3 prostate) was > 100 µM. The GI50 (SK-OV-3 ovarian) was 19.6 µM, the TGI (SK-OV-3 ovarian) was > 100 µM and the GI50 (OVCAR-5 ovarian) was > 100 µM. For the same molecule, the TGI (OVCAR-5 ovarian) was > 100 µM, the GI50 (OVCAR-3 ovarian) was > 100 µM and the TGI (OVCAR-3 ovarian) was > 100 µM.

`CCCCCCCC/C=C/CCCCCCCC1=NC(C)(C)CN1CCO` showed a GI50 (SW-620 colon) of 1.73 µM, a TGI (SW-620 colon) of 3.37 µM and a GI50 (SN12C renal) of 4.7 µM. For the same molecule, the TGI (SN12C renal) was 18 µM, the GI50 (ACHN renal) was 2280 nM and the TGI (ACHN renal) was 5.79 µM. The GI50 (NCI-H522 lung) was 1.81 µM, the TGI (NCI-H522 lung) was 3.58 µM and the GI50 (PC-3 prostate) was 2190 nM. It also gave a TGI (PC-3 prostate) of 9.38 µM, a GI50 (SK-OV-3 ovarian) of 9.97 µM and a TGI (SK-OV-3 ovarian) of 24.2 µM. The GI50 (OVCAR-5 ovarian) was 2.73 µM, the TGI (OVCAR-5 ovarian) was 7.98 µM and the GI50 (HOP-62 NSCLC) was 1830 nM. The TGI (HOP-62 NSCLC) was 3.29 µM, the GI50 (OVCAR-3 ovarian) was 4.52 µM and the TGI (OVCAR-3 ovarian) was 9 µM.

`c1ccc(CNCCN(CCNCc2ccccn2)Cc2ccc3ccccc3c2)nc1` gave a GI50 (SW-620 colon) of 2.36 µM, a TGI (SW-620 colon) of 6.32 µM and a GI50 (SR leukemia) of 2880 nM. It also gave a TGI (SR leukemia) of 7.83 µM, a GI50 (SN12C renal) of 3.21 µM and a TGI (SN12C renal) of 11.1 µM. The GI50 (ACHN renal) was 1050 nM, the TGI (ACHN renal) was 2.43 µM and the GI50 (PC-3 prostate) was 1920 nM. For the same molecule, the TGI (PC-3 prostate) was 6.13 µM, the GI50 (SK-OV-3 ovarian) was 1.94 µM and the TGI (SK-OV-3 ovarian) was 5.11 µM. It also gave a GI50 (OVCAR-5 ovarian) of 1.63 µM, a TGI (OVCAR-5 ovarian) of 4.03 µM and a GI50 (HOP-62 NSCLC) of 2170 nM. It also gave a TGI (HOP-62 NSCLC) of 6.69 µM, a GI50 (OVCAR-3 ovarian) of 1.83 µM and a TGI (OVCAR-3 ovarian) of 3.74 µM.

With `Nc1ccccc1C(=O)CCC1C(=O)NC(=S)NC1=O` the TGI (SW-620 colon) was > 100 µM, the TGI (SR leukemia) was > 100 µM and the TGI (ACHN renal) was > 100 µM. For the same molecule, the TGI (NCI-H522 lung) was > 100 µM, the TGI (PC-3 prostate) was > 100 µM and the TGI (SK-OV-3 ovarian) was > 100 µM. For the same molecule, the TGI (OVCAR-5 ovarian) was > 100 µM, the TGI (HOP-62 NSCLC) was > 100 µM and the TGI (OVCAR-3 ovarian) was > 100 µM.
